Assays:
[1] = tested on: B. subtilis 168; assay: Bliss interaction score (quartile over a dose matrix) (fitness difference); higher = more antagonism (negative = synergy)
How it was run: (§1)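 The Bliss score takes observed fitness and subtracts the expected fitness, calculated as a product of single-drug fitness values. Those single-drug values were inferred from the combination data. Fitness is OD595 at entry into stationary phase divided by the plate's robust no-drug mean, capped at 1, and the score is summarised by quartiles across technical, biological and donor/recipient replicates.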

[2] = tested on: S. aureus DSM 20231; assay: as above
How it was run: as §1

[3] = tested on: S. aureus Newman; assay: as above
How it was run: as §1

[4] = tested on: S. pneumoniae D39V; assay: as above
How it was run: as §1

[5] = tested on: S. aureus DSM 20231; assay: fitness (endpoint OD595 vs no drug) (fraction); higher = more growth
How it was run: (§2)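 Fitness was measured as bacterial growth in 384-well plates inoculated at OD595 0.01 (30 µl, or 55 µl for S. pneumoniae). Media were TSB, LB Lennox or CY, at 37 °C. OD595 was read every 30 min for 14 h and background-subtracted against the first reading. Fitness is OD595 at the transition into stationary phase divided by the robust mean of no-drug control wells, capped at 1.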

[6] = tested on: S. aureus Newman; assay: as above
How it was run: as §2

[7] = tested on: S. pneumoniae D39V; assay: as above
How it was run: as §2
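For Bliss interaction score (quartile over a dose matrix) in this document: first quartile when negative (synergy) and third quartile when positive (antagonism).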
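For fitness (endpoint OD595 vs no drug) in this document: OD595 on entry to stationary phase over no-drug wells; at most 1.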

CO/N=C(\C(=O)N[C@@H]1C(=O)N2C(C(=O)[O-])=C(C[N+]3(C)CCCC3)CS[C@H]12)c1csc(N)n1 [Cefepime] + Cc1ncc([N+](=O)[O-])n1CCO [Metronidazole]
Conditions	Bliss interaction score
[1]	0.0894
[2]	0.047
[3]	-0.0502
[4]	0.0181

Conditions	fitness
[5], first compound 0.125 µg/mL, partner 0.625 µg/mL	0.981
[5], first compound 0.125 µg/mL, partner 1.25 µg/mL	≥ 1
[5], first compound 0.125 µg/mL, partner 2.5 µg/mL	≥ 1
[5], first compound 0.25 µg/mL, partner 0.625 µg/mL	0.958
[5], first compound 0.25 µg/mL, partner 1.25 µg/mL	≥ 1
[5], first compound 0.25 µg/mL, partner 2.5 µg/mL	≥ 1
[5], first compound 0.5 µg/mL, partner 0.625 µg/mL	0.925
[5], first compound 0.5 µg/mL, partner 1.25 µg/mL	0.958
[5], first compound 0.5 µg/mL, partner 2.5 µg/mL	0.928
[6], first compound 0.125 µg/mL, partner 0.625 µg/mL	0.942
[6], first compound 0.125 µg/mL, partner 0.781 µg/mL	0.957
[6], first compound 0.125 µg/mL, partner 1.25 µg/mL	0.922
[6], first compound 0.125 µg/mL, partner 1.562 µg/mL	0.914
[6], first compound 0.125 µg/mL, partner 2.5 µg/mL	0.957
[6], first compound 0.125 µg/mL, partner 3.124 µg/mL	0.924
[6], first compound 0.25 µg/mL, partner 0.625 µg/mL	0.855
[6], first compound 0.25 µg/mL, partner 0.781 µg/mL	0.854
[6], first compound 0.25 µg/mL, partner 1.25 µg/mL	0.876
[6], first compound 0.25 µg/mL, partner 1.562 µg/mL	0.844
[6], first compound 0.25 µg/mL, partner 2.5 µg/mL	0.814
[6], first compound 0.25 µg/mL, partner 3.124 µg/mL	0.83
[6], first compound 0.5 µg/mL, partner 0.625 µg/mL	0.799
[6], first compound 0.5 µg/mL, partner 0.781 µg/mL	0.761
[6], first compound 0.5 µg/mL, partner 1.25 µg/mL	0.752
[6], first compound 0.5 µg/mL, partner 1.562 µg/mL	0.731
[6], first compound 0.5 µg/mL, partner 2.5 µg/mL	0.749
[6], first compound 0.5 µg/mL, partner 3.124 µg/mL	0.764
[7], first compound 0.007 µg/mL, partner 1.25 µg/mL	≥ 1
[7], first compound 0.007 µg/mL, partner 2.5 µg/mL	≥ 1
[7], first compound 0.007 µg/mL, partner 5 µg/mL	≥ 1
[7], first compound 0.0078 µg/mL, partner 1.073 µg/mL	0.998
[7], first compound 0.0078 µg/mL, partner 2.145 µg/mL	0.943
[7], first compound 0.0078 µg/mL, partner 4.29 µg/mL	0.988
[7], first compound 0.014 µg/mL, partner 1.25 µg/mL	≥ 1
[7], first compound 0.014 µg/mL, partner 2.5 µg/mL	≥ 1
[7], first compound 0.014 µg/mL, partner 5 µg/mL	≥ 1
[7], first compound 0.0155 µg/mL, partner 1.073 µg/mL	0.977
[7], first compound 0.0155 µg/mL, partner 4.29 µg/mL	0.968
[7], first compound 0.028 µg/mL, partner 1.25 µg/mL	0.957
[7], first compound 0.028 µg/mL, partner 2.5 µg/mL	0.964
[7], first compound 0.028 µg/mL, partner 5 µg/mL	0.912
[7], first compound 0.031 µg/mL, partner 1.073 µg/mL	0.939
[7], first compound 0.031 µg/mL, partner 2.145 µg/mL	0.9
[7], first compound 0.031 µg/mL, partner 4.29 µg/mL	0.942
